Patent US8557848B2, “4,5-ring annulated indole derivatives for treating or preventing of HCV and related viral infections” (Merck Sharp & Dohme Corp., priority 2006, dated 2013)
Like-named read-outs stand apart in the source and are kept apart here.

Experiments:
[1] = system: HCV replicon cells (replicon RNA level); assay: Cell-Based HCV Replicon Assay; conditions: Hepatitis C virus, 72 h; replicon RNA level by real time PCR (Taqman), cells harvested on day 3; read-out: EC50
Procedure: To measure cell-based anti-HCV activity of the a Compound of Formula (I), replicon cells were seeded at 5000 cells/well in 96-well collagen I-coated Nunc plates in the presence of the Compound of Formula (I). Various concentrations of a Compound of Formula (I), typically in 10 serial 2-fold dilutions, were added to the assay mixture, with the starting concentration ranging from 250 μM to 1 μM. The final concentration of DMSO was 0.5%, fetal bovine serum was 5%, in the assay media. Cells were harvested on day 3 by the addition of 1× cell lysis buffer (Ambion cat #8721). The replicon RNA level was measured using real time PCR (Taqman assay). The amplicon was located in 5B. The PCR primers were: 5B.2F, ATGGACAGGCGCCCTGA; 5B.2R, […]; the probe sequence was FAM-labeled CACGCCATGCGCTGCGG. GAPDH RNA was used as endogenous control and was amplified in the same reaction as NS5B (multiplex PCR) using primers and VIC-labeled probe recommended by the manufacturer (PE Applied Biosystem). The real-time RT-PCR reactions were run on ABI PRISM 7900HT Sequence Detection System using the following program: 48° C. for 30 min, 95° C. for 10 min, 40 cycles of 95° C. for 15 sec, 60° C. for 1 min. The ΔCT values (CT5B-CTGAPDH) were plotted against the concentration of test compound and fitted to the sigmoid dose-response model using XLfit4 (MDL). EC50 was defined as the concentration of inhibitor necessary to achieve ΔCT=1 over the projected baseline; EC90 the concentration necessary to achieve ΔCT=3.2 over the baseline. Alternatively, to quantitate the absolute amount of replicon RNA, a standard curve was established by including serially diluted T7 transcripts of replicon RNA in the Taqman assay. All Taqman reagents were from PE Applied Biosystems. Such an assay procedure was described in detail in e.g. Malcolm et al., Antimicrobial Agents and Chemotherapy 50: 1013-1020 (2006).
HCV Replicon assay data for selected Compounds of Formula (I) is provided below in Table 1, wherein the compound numbers correspond to the compound numbering set forth in the above specification.

[2] = molecular target: T1, HCV NS5B polymerase (NS5BΔCT21, from HCV-Con 1 isolate, genotype 1b) (Hepatitis C virus genotype 1b, UniProt Q9WMX2); assay: HCV NS5B Polymerase Inhibition Assay; type: biochemical
T1 construct: A soluble C-terminal 21-amino acid truncated NS5B enzyme form; polyhistidine (C); made in house; host or cells: Escherichia coli
Source text: A chemically synthesized 75-mer version, designated DCoH75, whose sequence matches the 3′-end of D-RNA, and DCoH75ddC, where the 3′-terminal cytidine of DCoH75 is replaced by dideoxycytidine, were used for assaying the NS5B enzyme activity as described in Ferrari et al., 12th International Symposium on HCV and Related Viruses, P-306 (2005). The sequence of the template RNA was: 5′-UGUGCCGGUCUUUCUGAACGGGAUAUAAACCUGGCCAGCUUCAUCGAACAAGUUGCCGUGUCUAUGACAUAGAUC-3′. A soluble C-terminal 21-amino acid truncated NS5B enzyme form (NS5BΔCT21, from HCV-Con 1 isolate, genotype 1b, Genbank accession number AJ238799) was produced and purified from Escherichia coli as C-terminal polyhistidine-tagged fusion protein as described in Ferrari et al., J. Virol. 73:1649-1654 (1999). A typical assay contained 20 mM Hepes pH 7.3, 10 mM MgCl2, 60 mM NaCl, 100 μg/ml BSA, 20 units/ml RNasin, 7.5 mM DTT, 0.1 μM ATP/GTP/UTP, 0.026 μM CTP, 0.25 mM GAU, 0.03 μM RNA template, 20 μCi/ml [^33P]-CTP, 2% DMSO, and 30 or 150 nM NS5B enzyme. Reactions were incubated at 22° C. for 2 hours, then stopped by adding 150 mM EDTA, washed in DE81 filter plate in 0.5M di-basic sodium phosphate buffer, pH 7.0, and counted using Packard TopCount after the addition of scintillation cocktail. Polynucleotide synthesis was monitored by the incorporation of radiolabeled CTP. The effect of the Compounds of Formula (I) on the polymerase activity was evaluated by adding various concentrations of a Compound of Formula (I), typically in 10 serial 2-fold dilutions, to the assay mixture. The starting concentrations ranged from 200 μM to 1 μM. An IC50 value for the inhibitor, defined as the compound concentration that provides 50% inhibition of polymerase activity, was determined by fitting the cpm data to the Hill equation Y=100/(1+10^((LogIC50-X)*HillSlope)), where X is the logarithm of compound concentration, and Y is the % inhibition. Ferrari et al., 12th International Symposium on HCV and Related Viruses, P-306 (2005) described in detail this assay procedure. It should be noted that such an assay as described is exemplary and not intended to limit the scope of the invention. The skilled practitioner can appreciate that modifications including but not limited to RNA template, primer, nucleotides, NS5B polymerase form, buffer composition, can be made to develop similar assays that yield the same result for the efficacy of the compounds and compositions described in the invention.
NS5B polymerase inhibition data for selected Compounds of Formula (I) is provided below in Table 2, wherein the compound numbers correspond to the compound numbering set forth in the above specification.

[3] = NS5B polymerase inhibition, [33P]-CTP incorporation, 22° C. for 2 hours, read-out: IC50

Structure (SMILES)	EC50 [1] [nM]	IC50 [2] [nM]	IC50 [2, 3] [nM]
CCOC(=O)c1c(-c2ccccc2F)c2c3c(C)c(C)[nH]c3ccc2n1Cc1ccccc1 [Compound 51]	> 1500	> 100	
Cc1cccc(Cn2c(C(=O)NS(C)(=O)=O)c(-c3ccc[nH]c3=O)c3c4occc4c(F)cc32)c1F [Compound 146]	< 500		< 25
CS(=O)(=O)NC(=O)c1c(-c2ccc[nH]c2=O)c2c3occc3ccc2n1Cc1cc(C(N)=O)ccc1F [Compound 161]	< 500		< 25
CS(=O)(=O)NC(=O)c1c(-c2ccc[nH]c2=O)c2c3occc3c(F)cc2n1Cc1ccnc(N)c1 [Compound 133]	< 500		< 25
CS(=O)(=O)NC(=O)c1c(-c2ccc[nH]c2=O)c2c3occc3c(F)cc2n1Cc1ccccc1F [Compound 134]	< 500		< 25
CCS(=O)(=O)NC(=O)c1c(-c2ccc[nH]c2=O)c2c3occc3ccc2n1Cc1ccccc1F [Compound 68]	< 500		< 25
CS(=O)(=O)NC(=O)c1c(-c2ccc[nH]c2=O)c2c3occc3c(F)cc2n1Cc1cc(C(=O)NC2CC2)ccc1F [Compound 206]	500 to 1500		< 25
NC(=O)c1cc(Cn2c(C(=O)O)c(-c3ccc[nH]c3=O)c3c4c(c(F)cc32)CCO4)cs1 [Compound 99]	500 to 1500		< 25
COC(=O)c1ccc(F)c(Cn2c(C(=O)NS(=O)(=O)C3CC3)c(-c3ccc[nH]c3=O)c3c4occc4ccc32)c1 [Compound 192]	< 500		< 25
Cc1cc2ccc3c(c(-c4ccc[nH]c4=O)c(C(=O)O)n3Cc3ccccc3F)c2o1 [Compound 76]	> 1500		25 to 100
Nc1n[nH]c2cc(F)c(Cn3c(C(=O)O)c(-c4ccc[nH]c4=O)c4c5occc5c(F)cc43)cc12 [Compound 80]	< 500	< 25	
NC(=O)c1ccc(F)c(Cn2c(C(=O)NS(=O)(=O)C3CC3)c(-c3ccc[nH]c3=O)c3c4occc4c(F)cc32)c1 [Compound 195]	< 500		< 25
Cc1ccc(Cn2c(C(=O)NS(C)(=O)=O)c(-c3ccc[nH]c3=O)c3c4occc4ccc32)c(C)c1 [Compound 60]	< 500		< 25
CS(=O)(=O)NC(=O)c1c(-c2ccc[nH]c2=O)c2c3c(ccc2n1Cc1ccccc1F)OC(F)(F)O3 [Compound 56]	> 1500	< 25	
O=C(O)c1c(-c2ccc[nH]c2=O)c2c3occc3c(F)cc2n1Cc1nc(Br)ccc1F [Compound 136]	< 500		< 25
CCc1coc2c1ccc1c2c(-c2ccc[nH]c2=O)c(C(=O)O)n1Cc1ccccc1F [Compound 43]	> 1500		> 100
O=C(NC1CC1)c1ccc(F)c(Cn2c(C(=O)NS(=O)(=O)C3CC3)c(-c3ccc[nH]c3=O)c3c4occc4c(F)cc32)c1 [Compound 221]	> 1500		< 25
Cc1cc2ccc3c(c(-c4ccc[nH]c4=O)c(C(=O)O)n3Cc3cc(F)ccc3F)c2o1 [Compound 85]	> 1500		< 25
Nc1cc(Cn2c(C(=O)O)c(-c3ccc[nH]c3=O)c3c4occc4c(F)cc32)ccn1 [Compound 77]	< 500		< 25

Structure (SMILES)	EC50 [1] [nM]	IC50 [2] [nM]	IC50 [2, 3] [nM]
O=C(O)c1c(-c2ccc[nH]c2=O)c2c3sccc3ccc2n1Cc1cc(F)ccc1F [Compound 33]	> 1500		25 to 100
CS(=O)(=O)NC(=O)c1c(-c2ccc[nH]c2=O)c2c3occc3ccc2n1Cc1ccccc1F [Compound 4]	< 500		< 25
CNC(=O)c1ccc(F)c(Cn2c(C(=O)O)c(-c3ccc[nH]c3=O)c3c4occc4c(F)cc32)c1 [Compound 121]	< 500		< 25
O=C(O)c1ccc(F)c(Cn2c(C(=O)O)c(-c3ccc[nH]c3=O)c3c4occc4c(F)cc32)c1 [Compound 108]	500 to 1500		< 25
CS(=O)(=O)NC(=O)c1c(-c2ccc[nH]c2=O)c2c3occc3c(F)cc2n1Cc1cc2ccccc2nc1Cl [Compound 194]	< 500		< 25
NC(=O)c1cnc(F)c(Cn2c(C(=O)O)c(-c3ccc[nH]c3=O)c3c4c(c(F)cc32)CCO4)c1 [Compound 113]	< 500		< 25
Cc1ccc(Cn2c(C(=O)NS(=O)(=O)C3CC3)c(-c3ccc[nH]c3=O)c3c4occc4ccc32)c(C)c1 [Compound 152]	< 500		< 25
O=C(NS(=O)(=O)C1CC1)c1c(-c2ccc[nH]c2=O)c2c3occc3ccc2n1Cc1cc(F)ccc1F [Compound 62]	< 500		< 25
O=C(O)c1c(-c2ccc[nH]c2=O)c2c3occ(Cl)c3c(F)cc2n1Cc1cc(F)ccc1F [Compound 119]	< 500		< 25
CS(=O)(=O)NC(=O)c1c(-c2ccc[nH]c2=O)c2c3occc3c(F)cc2n1Cc1cc(F)ccc1F [Compound 150]	< 500		< 25
Cc1nn(C)c2nc(Cl)c(Cn3c(C(=O)O)c(-c4ccc[nH]c4=O)c4c5occc5c(F)cc43)cc12 [Compound 143]	< 500		< 25
NCc1cccc(Cn2c(C(=O)O)c(-c3ccc[nH]c3=O)c3c4occc4c(F)cc32)c1 [Compound 81]	< 500		< 25
Cc1cccc(Cn2c(C(=O)O)c(-c3ccc[nH]c3=O)c3c4occ(C)c4ccc32)c1F [Compound 48]	> 1500		> 100
CC(C)S(=O)(=O)NC(=O)c1c(-c2ccc[nH]c2=O)c2c3c(c(F)cc2n1Cc1csc(C(N)=O)c1)CCO3 [Compound 188]	< 500		< 25
Nc1ccccc1S(=O)(=O)NC(=O)c1c(-c2ccc[nH]c2=O)c2c3occc3c(F)cc2n1Cc1ccccc1F [Compound 202]	< 500		< 25
NC(=O)c1ccc(F)c(Cn2c(C(=O)O)c(-c3ccc[nH]c3=O)c3c4occc4c(F)cc32)c1 [Compound 107]	< 500		< 25
Nc1ccccc1S(=O)(=O)NC(=O)c1c(-c2ccc[nH]c2=O)c2c3occc3c(F)cc2n1Cc1cc2ccccc2nc1Cl [Compound 223]	< 500		< 25
O=C(O)c1c(-c2ccccc2F)c2c3occc3c(F)cc2n1Cc1cc2ccccc2nc1Cl [Compound 128]	< 500		> 100
O=C(O)c1c(-c2ccc[nH]c2=O)c2c3occc3c(F)cc2n1Cc1cc2ccccc2nc1Cl [Compound 126]	< 500	< 25	
